Literature values, collected in US20250255875A1, “BIFUNCTIONAL CHIMERIC MOLECULES FOR LABELING OF KINASES WITH TARGET BINDING MOIETIES AND METHODS OF USE THEREOF” (The Brigham and Women's Hospital, Inc., priority 2022, published 2025).

How the values were obtained:
[1] = tested on: NF-…B Pathway
[2] = target: T1, Recombinant PK… (PKCζ) (Homo sapiens, UniProt Q05513)
T1 sequence (Q05513 1-592): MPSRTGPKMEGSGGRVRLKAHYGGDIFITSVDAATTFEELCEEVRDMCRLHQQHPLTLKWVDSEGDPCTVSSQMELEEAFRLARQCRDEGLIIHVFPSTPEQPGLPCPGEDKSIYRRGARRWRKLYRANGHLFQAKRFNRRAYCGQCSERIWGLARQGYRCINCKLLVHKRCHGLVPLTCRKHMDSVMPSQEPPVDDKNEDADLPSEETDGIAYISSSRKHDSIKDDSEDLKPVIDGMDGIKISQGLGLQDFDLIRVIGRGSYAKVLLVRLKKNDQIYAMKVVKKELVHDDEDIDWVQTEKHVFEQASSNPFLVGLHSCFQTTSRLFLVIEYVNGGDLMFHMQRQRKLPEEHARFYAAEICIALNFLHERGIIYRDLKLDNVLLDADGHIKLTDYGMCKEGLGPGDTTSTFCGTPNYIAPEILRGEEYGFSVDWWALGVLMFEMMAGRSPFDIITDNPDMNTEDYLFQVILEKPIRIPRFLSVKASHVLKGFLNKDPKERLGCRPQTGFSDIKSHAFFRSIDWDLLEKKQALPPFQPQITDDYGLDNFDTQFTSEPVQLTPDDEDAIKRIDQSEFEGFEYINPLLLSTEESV

[3] = tested on: NF-kB; settings: mice
[4] = tested on: mutant EGFR; settings: 0.01-10 uM
[5] = tested on: MERS-COV; settings: in vitro
[6] = target: p38α MAPK (Homo sapiens, UniProt Q16539)
p38α MAPK, sequence (Q16539 whole entry): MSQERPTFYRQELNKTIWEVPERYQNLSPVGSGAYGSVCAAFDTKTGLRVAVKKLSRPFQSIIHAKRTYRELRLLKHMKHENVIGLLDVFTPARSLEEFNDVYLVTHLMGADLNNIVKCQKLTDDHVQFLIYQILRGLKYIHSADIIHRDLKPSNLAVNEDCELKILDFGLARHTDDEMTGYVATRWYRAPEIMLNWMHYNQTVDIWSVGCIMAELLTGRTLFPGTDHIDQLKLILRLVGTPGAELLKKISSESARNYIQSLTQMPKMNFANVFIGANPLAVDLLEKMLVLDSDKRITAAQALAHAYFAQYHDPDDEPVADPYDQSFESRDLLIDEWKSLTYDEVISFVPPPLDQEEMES

[7] = tested on: breast, prostate, colon and pancreatic carcinoma xenografts; settings: in vivo
[8] = target: c-Met (Homo sapiens, UniProt P08581)
c-Met, sequence (P08581 25-1390): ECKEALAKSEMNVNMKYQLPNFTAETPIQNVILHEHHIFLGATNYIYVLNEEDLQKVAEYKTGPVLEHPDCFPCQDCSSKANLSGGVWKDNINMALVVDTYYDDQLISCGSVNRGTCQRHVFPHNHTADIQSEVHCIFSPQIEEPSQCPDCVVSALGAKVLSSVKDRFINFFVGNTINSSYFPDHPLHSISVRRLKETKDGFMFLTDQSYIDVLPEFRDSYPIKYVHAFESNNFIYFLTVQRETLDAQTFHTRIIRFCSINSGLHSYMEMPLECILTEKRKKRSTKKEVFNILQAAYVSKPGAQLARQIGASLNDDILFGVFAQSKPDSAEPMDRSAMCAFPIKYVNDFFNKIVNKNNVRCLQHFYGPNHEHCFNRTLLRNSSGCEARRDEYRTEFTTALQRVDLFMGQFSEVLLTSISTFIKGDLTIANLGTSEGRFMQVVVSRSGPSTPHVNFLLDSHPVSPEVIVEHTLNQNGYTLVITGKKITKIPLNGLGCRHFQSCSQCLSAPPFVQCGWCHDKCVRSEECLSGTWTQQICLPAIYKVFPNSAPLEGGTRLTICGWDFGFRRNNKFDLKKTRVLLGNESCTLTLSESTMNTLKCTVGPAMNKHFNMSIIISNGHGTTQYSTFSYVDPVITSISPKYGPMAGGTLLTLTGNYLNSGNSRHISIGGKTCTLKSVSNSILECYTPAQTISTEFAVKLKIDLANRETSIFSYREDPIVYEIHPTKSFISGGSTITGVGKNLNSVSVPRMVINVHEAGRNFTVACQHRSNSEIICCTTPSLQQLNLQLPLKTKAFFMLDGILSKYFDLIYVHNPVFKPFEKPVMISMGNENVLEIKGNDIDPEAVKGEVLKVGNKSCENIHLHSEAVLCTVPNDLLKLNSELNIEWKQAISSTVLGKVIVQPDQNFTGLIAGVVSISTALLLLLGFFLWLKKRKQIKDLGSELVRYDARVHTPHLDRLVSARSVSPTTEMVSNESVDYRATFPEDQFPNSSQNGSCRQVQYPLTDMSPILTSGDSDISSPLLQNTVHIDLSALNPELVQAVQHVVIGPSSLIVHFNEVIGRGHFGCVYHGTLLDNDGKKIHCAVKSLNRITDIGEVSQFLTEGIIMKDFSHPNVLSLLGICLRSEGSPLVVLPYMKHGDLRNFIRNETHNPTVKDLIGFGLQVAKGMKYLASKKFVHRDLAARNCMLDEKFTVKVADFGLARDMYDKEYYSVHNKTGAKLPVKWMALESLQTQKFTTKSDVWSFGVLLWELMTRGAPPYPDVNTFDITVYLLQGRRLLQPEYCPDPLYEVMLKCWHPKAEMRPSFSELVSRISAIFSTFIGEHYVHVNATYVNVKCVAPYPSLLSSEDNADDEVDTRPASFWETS

[9] = tested on: Lyn kinase; settings: knockout mice
[10] = not given; remark: listed apart in the source

Row | Compound | reporter gene assay % inhibu at 5 μM [1] [%] | cell-free assay % inhibu at 62.5 μM [2] [%] | further results
1 | CC(C)(C)C1=NN(c2ccc(Cl)cc2)C(c2ccc(O)cc2)C1 (stereo not drawn) [1a] | 75.1 | – | –
2 | CC(C)(C)C1=NN(c2ccc(F)cc2)C(c2ccc(O)cc2)C1 (stereo not drawn) [1b] | 63.8 | 95.5 | –
3 | CC(C)(C)C1=NN(c2ccc(Br)cc2)C(c2ccc(O)cc2)C1 (stereo not drawn) [1c] | 58.4 | 93.2 | –
4 | Cc1ccc(N2N=C(C(C)(C)C)CC2c2ccc(O)cc2)cc1 (stereo not drawn) [1e] | 62.9 | – | –
5 | CC(C)(C)C1=NN(c2cccc(Cl)c2)C(c2ccc(O)cc2)C1 (stereo not drawn) [1h] | 64.6 | 96.8 | –
6 | CC(C)(C)C1=NN(c2cccc(C(F)(F)F)c2)C(c2ccc(O)cc2)C1 (stereo not drawn) [1j] | 89.7 | 96.1 | –
7 | Cc1cccc(N2N=C(C(C)(C)C)CC2c2ccc(O)cc2)c1 (stereo not drawn) [1k] | 73.7 | 91.7 | –
8 | Cc1ccc2nc(NCCN)c3ncc(C)n3c2c1.Cl [BMS-345541] | – | – | activity against LPS-induced NF-kB activation [3]: active
9 | O=C(NOCC(O)CO)c1ccc(F)c(F)c1Nc1ccc(I)cc1F (stereo not drawn) [Compound 35] | – | – | Sol (pH 6.5): 255, μg/mL
10 | O=C(Nc1nccs1)C(c1cc(F)ccc1O)N1Cc2ccc(-c3ccc(N4CCNCC4)cc3)cc2C1=O (stereo not drawn) [JBJ-04-125-02] | – | – | EGFR phosphorylation [4]: inhibited EGFR phosphorylation
11 | CO[C@H]1C[C@@H]2CC[C@@H](C)[C@@](O)(O2)C(=O)C(=O)N2CCCC[C@H]2C(=O)O[C@H]([C@H](C)C[C@@H]2CC[C@@H](O)[C@H](OC)C2)CC(=O)[C@H](C)/C=C(\C)[C@@H](O)[C@@H](OC)C(=O)[C@H](C)C[C@H](C)/C=C/C=C/C=C/1C [Sirolimus] | – | – | MERS-COV infection of Huh7 cells [5]: inhibits MERS-COV infection
12 | O=C1c2ccc(Nc3ccc(F)cc3F)cc2CCc2ccc(OC[C@H](O)CO)cc21 [Skepinone-B] | – | – | residence time [6]: 150 s
13 | O=C1NC(=O)[C@@H](c2cn3c4c(cccc24)CCC3)[C@@H]1c1c[nH]c2ccccc12 [Tivantinib, tivantinib] | – | – | growth of carcinoma xenografts [7]: inhibition of growth; selectivity for c-Met over other kinases tested [8]: 10-100 time
14 | Cc1cccc(Oc2cnc(=O)[nH]c2)c1 [Tolimidone, tolimidone] | – | – | glucose lowering when Lyn kinase was absent [9]: did not lower glucose
15 | CC(=O)Nc1cccc(-n2c(=O)n(C3CC3)c(=O)c3c(Nc4ccc(I)cc4F)n(C)c(=O)c(C)c32)c1 [Trametinib] | – | – | Absorption/distribution of an oral dose of tablet [10]: 72%
